# Results: ChEMBL document CHEMBL3243997, “(Acylaryloxy)acetic acid diuretics. 2. (2-Alkyl-2-aryl-1-oxo-5-indanyloxy)acetic acids” (1978)
# Test system: Pan troglodytes
# Assay: Natriuretic activity in chimpanzee assessed as change in Curate to Cinsulin ratio at 5 mg/kg, po
# Format: functional
row,SMILES,Ratio
1,CC1(c2ccc(F)cc2)Cc2cc(OCC(=O)O)c(Cl)c(Cl)c2C1=O (configuration not stated),0.43
2,CC1(c2ccc(Br)cc2)Cc2cc(OCC(=O)O)c(Cl)c(Cl)c2C1=O (configuration not stated),0.01
3,CC1(c2ccccc2)Cc2cc(OCc3nnn[nH]3)c(Cl)c(Cl)c2C1=O (configuration not stated),0.09
4,CC(=O)c1ccc(C2(C)Cc3cc(OCC(=O)O)c(Cl)c(Cl)c3C2=O)cc1 (configuration not stated),0.08
5,O=C(O)COc1cc2c(c(Cl)c1Cl)C(=O)C(c1ccccc1)(c1ccccc1)C2,0.03
6,O=C(O)COc1cc2c(c(Cl)c1Cl)C(=O)C(c1ccccc1)(C1CCCC1)C2 (configuration not stated),0
7,CC1(c2ccc([N+](=O)[O-])cc2)Cc2cc(OCC(=O)O)c(Cl)c(Cl)c2C1=O (configuration not stated),0.03
8,CCCN(CCC)S(=O)(=O)c1ccc(C(=O)O)cc1 [PROBENECID],0.05
9,O=C(O)COc1cc2c(c(Cl)c1Cl)C(=O)C1(c3ccccc3)CCCCC21 (configuration not stated),0.08
10,NS(=O)(=O)c1cc(C(=O)O)c(NCc2ccco2)cc1Cl [FUROSEMIDE],-0.02
11,CC1(c2ccc(O)cc2)Cc2cc(OCC(=O)O)c(Cl)c(Cl)c2C1=O (configuration not stated),0.02

# Test system: Rattus norvegicus
# Assay: Natriuretic activity in rat assessed as per cage at 9 mg/kg, po
# Format: functional
row,SMILES,Activity [mEq]
1,CC1(c2ccc(F)cc2)Cc2cc(OCC(=O)O)c(Cl)c(Cl)c2C1=O (configuration not stated),0.86
2,CC1(c2ccc(Br)cc2)Cc2cc(OCC(=O)O)c(Cl)c(Cl)c2C1=O (configuration not stated),0.29
3,CC1(c2ccccc2)Cc2cc(OCc3nnn[nH]3)c(Cl)c(Cl)c2C1=O (configuration not stated),0.17
4,CC(=O)c1ccc(C2(C)Cc3cc(OCC(=O)O)c(Cl)c(Cl)c3C2=O)cc1 (configuration not stated),0.62
5,O=C(O)COc1cc2c(c(Cl)c1Cl)C(=O)C(c1ccccc1)(c1ccccc1)C2,0.93
6,O=C(O)COc1cc2c(c(Cl)c1Cl)C(=O)C(c1ccccc1)(C1CCCC1)C2 (configuration not stated),0.4
7,CC1(c2ccc([N+](=O)[O-])cc2)Cc2cc(OCC(=O)O)c(Cl)c(Cl)c2C1=O (configuration not stated),1.02
8,O=C(O)COc1cc2c(c(Cl)c1Cl)C(=O)C1(c3ccccc3)CCCCC21 (configuration not stated),0.65
9,NS(=O)(=O)c1cc(C(=O)O)c(NCc2ccco2)cc1Cl [FUROSEMIDE],0.07
10,CC1(c2ccc(O)cc2)Cc2cc(OCC(=O)O)c(Cl)c(Cl)c2C1=O (configuration not stated),0.33

# Test system: Rattus norvegicus
# Assay: Natriuretic activity in rat assessed as per cage at 3 mg/kg, po
# Format: functional
row,SMILES,Activity [mEq]
1,CC1(c2ccc(F)cc2)Cc2cc(OCC(=O)O)c(Cl)c(Cl)c2C1=O (configuration not stated),1.01
2,CC1(c2ccc(Br)cc2)Cc2cc(OCC(=O)O)c(Cl)c(Cl)c2C1=O (configuration not stated),0.21
3,CC1(c2ccccc2)Cc2cc(OCc3nnn[nH]3)c(Cl)c(Cl)c2C1=O (configuration not stated),0.28
4,CC(=O)c1ccc(C2(C)Cc3cc(OCC(=O)O)c(Cl)c(Cl)c3C2=O)cc1 (configuration not stated),0.49
5,O=C(O)COc1cc2c(c(Cl)c1Cl)C(=O)C(c1ccccc1)(c1ccccc1)C2,0.4
6,O=C(O)COc1cc2c(c(Cl)c1Cl)C(=O)C(c1ccccc1)(C1CCCC1)C2 (configuration not stated),0.79
7,CC1(c2ccc([N+](=O)[O-])cc2)Cc2cc(OCC(=O)O)c(Cl)c(Cl)c2C1=O (configuration not stated),0.89
8,O=C(O)COc1cc2c(c(Cl)c1Cl)C(=O)C1(c3ccccc3)CCCCC21 (configuration not stated),0.47
9,CC1(c2ccc(O)cc2)Cc2cc(OCC(=O)O)c(Cl)c(Cl)c2C1=O (configuration not stated),0.17

# Test system: Pan troglodytes
# Assay: Natriuretic activity in chimpanzee assessed as per min at 5 mg/kg, po
# Format: functional
row,SMILES,Activity [uEq]
1,CC1(c2ccc(F)cc2)Cc2cc(OCC(=O)O)c(Cl)c(Cl)c2C1=O (configuration not stated),310
2,CC1(c2ccc(Br)cc2)Cc2cc(OCC(=O)O)c(Cl)c(Cl)c2C1=O (configuration not stated),27
3,CC1(c2ccccc2)Cc2cc(OCc3nnn[nH]3)c(Cl)c(Cl)c2C1=O (configuration not stated),44
4,CC(=O)c1ccc(C2(C)Cc3cc(OCC(=O)O)c(Cl)c(Cl)c3C2=O)cc1 (configuration not stated),608
5,O=C(O)COc1cc2c(c(Cl)c1Cl)C(=O)C(c1ccccc1)(c1ccccc1)C2,19
6,O=C(O)COc1cc2c(c(Cl)c1Cl)C(=O)C(c1ccccc1)(C1CCCC1)C2 (configuration not stated),47
7,CC1(c2ccc([N+](=O)[O-])cc2)Cc2cc(OCC(=O)O)c(Cl)c(Cl)c2C1=O (configuration not stated),176
8,O=C(O)COc1cc2c(c(Cl)c1Cl)C(=O)C1(c3ccccc3)CCCCC21 (configuration not stated),137
9,NS(=O)(=O)c1cc(C(=O)O)c(NCc2ccco2)cc1Cl [FUROSEMIDE],1035
10,CC1(c2ccc(O)cc2)Cc2cc(OCC(=O)O)c(Cl)c(Cl)c2C1=O (configuration not stated),151

# Test system: Canis familiaris
# Assay: Diuretic activity in dog assessed as potassium level in urine per min at 1 mg/kg, iv relative to control
# Format: functional, Canis lupus familiaris
row,SMILES,Activity [milliequivalent]
1,NS(=O)(=O)c1cc(C(=O)O)c(NCc2ccco2)cc1Cl [FUROSEMIDE],141

# Test system: Rattus norvegicus
# Assay: Natriuretic activity in rat assessed as per cage at 27 mg/kg, po
# Format: functional
row,SMILES,Activity [mEq]
1,CC1(c2ccc(F)cc2)Cc2cc(OCC(=O)O)c(Cl)c(Cl)c2C1=O (configuration not stated),1.23
2,CC1(c2ccc(Br)cc2)Cc2cc(OCC(=O)O)c(Cl)c(Cl)c2C1=O (configuration not stated),0.27
3,CC1(c2ccccc2)Cc2cc(OCc3nnn[nH]3)c(Cl)c(Cl)c2C1=O (configuration not stated),0.2
4,CC(=O)c1ccc(C2(C)Cc3cc(OCC(=O)O)c(Cl)c(Cl)c3C2=O)cc1 (configuration not stated),0.81
5,O=C(O)COc1cc2c(c(Cl)c1Cl)C(=O)C(c1ccccc1)(c1ccccc1)C2,1.09
6,O=C(O)COc1cc2c(c(Cl)c1Cl)C(=O)C(c1ccccc1)(C1CCCC1)C2 (configuration not stated),0.31
7,CC1(c2ccc([N+](=O)[O-])cc2)Cc2cc(OCC(=O)O)c(Cl)c(Cl)c2C1=O (configuration not stated),1.68
8,O=C(O)COc1cc2c(c(Cl)c1Cl)C(=O)C1(c3ccccc3)CCCCC21 (configuration not stated),0.86
9,NS(=O)(=O)c1cc(C(=O)O)c(NCc2ccco2)cc1Cl [FUROSEMIDE],1.25
10,CC1(c2ccc(O)cc2)Cc2cc(OCC(=O)O)c(Cl)c(Cl)c2C1=O (configuration not stated),0.35

# Test system: Canis familiaris
# Assay: Diuretic activity in dog assessed as […] urine volume at 5 mg/kg, iv relative to control
# Format: functional, Canis lupus familiaris
row,SMILES,Activity [mL]
1,CC1(c2ccc(F)cc2)Cc2cc(OCC(=O)O)c(Cl)c(Cl)c2C1=O (configuration not stated),3
2,CC1(c2ccc(Br)cc2)Cc2cc(OCC(=O)O)c(Cl)c(Cl)c2C1=O (configuration not stated),3
3,CC1(c2ccccc2)Cc2cc(OCc3nnn[nH]3)c(Cl)c(Cl)c2C1=O (configuration not stated),3
4,O=C(O)COc1cc2c(c(Cl)c1Cl)C(=O)C(c1ccccc1)(c1ccccc1)C2,2
5,O=C(O)COc1cc2c(c(Cl)c1Cl)C(=O)C(c1ccccc1)(C1CCCC1)C2 (configuration not stated),0.8
6,CC1(c2ccc([N+](=O)[O-])cc2)Cc2cc(OCC(=O)O)c(Cl)c(Cl)c2C1=O (configuration not stated),8
7,O=C(O)COc1cc2c(c(Cl)c1Cl)C(=O)C1(c3ccccc3)CCCCC21 (configuration not stated),4
8,CC1(c2ccc(O)cc2)Cc2cc(OCC(=O)O)c(Cl)c(Cl)c2C1=O (configuration not stated),10

# Test system: Canis familiaris
# Assay: Diuretic activity in dog assessed as chloride level in urine per min at 1 mg/kg, iv relative to control
# Format: functional, Canis lupus familiaris
row,SMILES,Activity [µEq/min]
1,NS(=O)(=O)c1cc(C(=O)O)c(NCc2ccco2)cc1Cl [FUROSEMIDE],1080

# Test system: Canis familiaris
# Assay: Diuretic activity in dog assessed as […] urine volume at 1 mg/kg, iv relative to control
# Format: functional, Canis lupus familiaris
row,SMILES,Activity [mL]
1,NS(=O)(=O)c1cc(C(=O)O)c(NCc2ccco2)cc1Cl [FUROSEMIDE],3

# Test system: Canis familiaris
# Assay: Diuretic activity in dog assessed as sodium level in urine per min at 1 mg/kg, iv relative to control
# Format: functional, Canis lupus familiaris
row,SMILES,Activity [milliequivalent]
1,NS(=O)(=O)c1cc(C(=O)O)c(NCc2ccco2)cc1Cl [FUROSEMIDE],960

# Test system: Canis familiaris
# Assay: Diuretic activity in dog assessed as chloride level in urine per min at 5 mg/kg, iv relative to control
# Format: functional, Canis lupus familiaris
row,SMILES,Activity [µEq/min]
1,CC1(c2ccc(F)cc2)Cc2cc(OCC(=O)O)c(Cl)c(Cl)c2C1=O (configuration not stated),362
2,CC1(c2ccc(Br)cc2)Cc2cc(OCC(=O)O)c(Cl)c(Cl)c2C1=O (configuration not stated),34
3,CC1(c2ccccc2)Cc2cc(OCc3nnn[nH]3)c(Cl)c(Cl)c2C1=O (configuration not stated),245
4,O=C(O)COc1cc2c(c(Cl)c1Cl)C(=O)C(c1ccccc1)(c1ccccc1)C2,5
5,O=C(O)COc1cc2c(c(Cl)c1Cl)C(=O)C(c1ccccc1)(C1CCCC1)C2 (configuration not stated),0.9
6,CC1(c2ccc([N+](=O)[O-])cc2)Cc2cc(OCC(=O)O)c(Cl)c(Cl)c2C1=O (configuration not stated),810
7,O=C(O)COc1cc2c(c(Cl)c1Cl)C(=O)C1(c3ccccc3)CCCCC21 (configuration not stated),211
8,CC1(c2ccc(O)cc2)Cc2cc(OCC(=O)O)c(Cl)c(Cl)c2C1=O (configuration not stated),1460

# Test system: Rattus norvegicus
# Assay: Natriuretic activity in rat assessed as per cage at 81 mg/kg, po
# Format: functional
row,SMILES,Activity [mEq]
1,CC1(c2ccc(F)cc2)Cc2cc(OCC(=O)O)c(Cl)c(Cl)c2C1=O (configuration not stated),1.73
2,CC1(c2ccc(Br)cc2)Cc2cc(OCC(=O)O)c(Cl)c(Cl)c2C1=O (configuration not stated),0.42
3,CC1(c2ccccc2)Cc2cc(OCc3nnn[nH]3)c(Cl)c(Cl)c2C1=O (configuration not stated),0.4
4,CC(=O)c1ccc(C2(C)Cc3cc(OCC(=O)O)c(Cl)c(Cl)c3C2=O)cc1 (configuration not stated),1.63
5,O=C(O)COc1cc2c(c(Cl)c1Cl)C(=O)C(c1ccccc1)(c1ccccc1)C2,0.95
6,O=C(O)COc1cc2c(c(Cl)c1Cl)C(=O)C(c1ccccc1)(C1CCCC1)C2 (configuration not stated),0.35
7,CC1(c2ccc([N+](=O)[O-])cc2)Cc2cc(OCC(=O)O)c(Cl)c(Cl)c2C1=O (configuration not stated),1.98
8,O=C(O)COc1cc2c(c(Cl)c1Cl)C(=O)C1(c3ccccc3)CCCCC21 (configuration not stated),1.17
9,NS(=O)(=O)c1cc(C(=O)O)c(NCc2ccco2)cc1Cl [FUROSEMIDE],2.44

# Test system: Canis familiaris
# Assay: Diuretic activity in dog assessed as sodium level in urine per min at 5 mg/kg, iv relative to control
# Format: functional, Canis lupus familiaris
row,SMILES,Activity [µEq/min]
1,CC1(c2ccc(F)cc2)Cc2cc(OCC(=O)O)c(Cl)c(Cl)c2C1=O (configuration not stated),352
2,CC1(c2ccc(Br)cc2)Cc2cc(OCC(=O)O)c(Cl)c(Cl)c2C1=O (configuration not stated),96
3,CC1(c2ccccc2)Cc2cc(OCc3nnn[nH]3)c(Cl)c(Cl)c2C1=O (configuration not stated),279
4,O=C(O)COc1cc2c(c(Cl)c1Cl)C(=O)C(c1ccccc1)(c1ccccc1)C2,44
5,O=C(O)COc1cc2c(c(Cl)c1Cl)C(=O)C(c1ccccc1)(C1CCCC1)C2 (configuration not stated),11
6,CC1(c2ccc([N+](=O)[O-])cc2)Cc2cc(OCC(=O)O)c(Cl)c(Cl)c2C1=O (configuration not stated),751
7,O=C(O)COc1cc2c(c(Cl)c1Cl)C(=O)C1(c3ccccc3)CCCCC21 (configuration not stated),276
8,CC1(c2ccc(O)cc2)Cc2cc(OCC(=O)O)c(Cl)c(Cl)c2C1=O (configuration not stated),1260
